Here are results for 33 molecules from the METLIN SMRT retention time set (Domingo-Almenara et al. 2019).

The nature of the data set: gradient 5% acetonitrile 3 min, to 50% in 2 min, to 85% in 15 min, held 3 min, 100 µL/min. Particulars: column: Zorbax Extend-C18 2.1 x 50 mm; eluents: water / acetonitrile, 0.1% formic acid. In a few lines:
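Mixtures of ~100 pure standards were chromatographed on a Zorbax Extend-C18 column (2.1 × 50 mm, 1.8 μm) at 100 μL/min using water and acetonitrile, each with 0.1% formic acid. Detection used a quadrupole time-of-flight mass spectrometer in positive and negative ionization mode, and data collection spanned 3 months. Retention time was obtained from adduct peaks picked computationally and each checked manually.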
The molecule `O=C(c1ccc2ncccc2c1)N1C[C@@H](CO)[C@H](c2ccccn2)C1` gave an RP-LC retention time of 543 s.
`CNC(=O)[C@@H]1CN(C(=O)Cc2c(C)noc2C)C[C@H]1c1nc(C)no1` had an RP-LC retention time of 599 s.
Consider `COCC1(O)CCOC2(CCN(Cc3cccc(Cl)c3)CC2)C1` (stereo not drawn), for which the RP-LC retention time was 612 s.
`CCOC(=O)c1ccc(NS(=O)(=O)N2CCOCC2)cc1` registered an RP-LC retention time of 724 s.
For `COCc1nc2cccnc2n1C1CCN(C(=O)Nc2cc(OC)ccc2OC)CC1`, the RP-LC retention time is 696 s.
`CCCn1cc(S(=O)(=O)Nc2cc(F)cc(F)c2)c2cccnc21` displayed an RP-LC retention time of 890 s.
In turn, `Cn1nc(-c2nc(C3CC3)no2)c2c1CCN(C(=O)c1ccc(Cl)s1)C2` yielded an RP-LC retention time of 928 s.
`C#CC1(N2CCCCC2)CCCCC1` had an RP-LC retention time of 638 s.
`CCCOc1nc2ccccc2nc1N1CCCC(C(=O)N2CCN(c3ccccc3F)CC2)C1` (stereo not drawn) registered an RP-LC retention time of 1380 s.
In turn, `COC(=O)c1cnc2nc(C)ccc2c1Nc1cc(OC)cc(OC)c1` showed an RP-LC retention time of 735 s.
As for `Cc1cccc(C)c1NC1=NCCCS1`, the figure is 635 s.
`CCc1ccc(CNC(=O)Cc2c(C(=O)O)c(C)cn2CC)cc1` came in with an RP-LC retention time of 842 s.
`COC(=O)C1=C(N)Oc2cc(C)n(CCN(C)C)c(=O)c2C1c1cccc(OC)c1` (stereo not drawn) registered an RP-LC retention time of 609 s.
With `Cc1ccc(CNC(=O)N2CCC(OC3CCN(Cc4ccccc4)CC3)CC2)cc1`, the RP-LC retention time stood at 681 s.
The molecule `O=C(c1ccc(OCC2CCCN2C(=O)c2ccc(Cl)cc2)cc1)N1CCOCC1` (stereo not drawn) gave an RP-LC retention time of 795 s.
`O=C(Nc1ccccc1C(F)(F)F)N1CCC(N2CCN(Cc3cccc(F)c3)C(=O)C2=O)CC1` had an RP-LC retention time of 829 s.
In turn, `Cc1nc(N2CCC(C(=O)Nc3ccc(F)cc3F)CC2)c2c(C)c(C)oc2n1` returned an RP-LC retention time of 874 s.
`Cc1ccc(S(=O)(=O)N2CC[C@H](c3n[nH]c(C)n3)[C@H](N(C)C)C2)c(C)c1` had an RP-LC retention time of 623 s.
Molecule `Cc1ccc(-c2ccc(N3CCCC(C(=O)N4CCN(C(C)C)CC4)C3)nn2)cc1C` (stereo not drawn) gave an RP-LC retention time of 623 s.
As to `O=C(Cn1ccn2nc(-c3ccc(F)cc3)c(CO)c2c1=O)N1CCc2ccccc21`, the RP-LC retention time is 857 s.
For the molecule `COCc1nncn1C1CCN(C(=O)c2cc(F)cc(F)c2)CC1`, the RP-LC retention time is 628 s.
Consider `CCCCCCNC(=O)C1CCN(C(=O)C(C)(C)C)CC1`, for which the RP-LC retention time stood at 804 s.
Regarding `CC(C)N1CCN(C(=O)c2csc(-c3ccc(N4CCCC4)nc3)n2)CC1`, the RP-LC retention time came out at 559 s.
The result for `Cc1ccc(NS(=O)(=O)c2cc(-c3cc(C(F)(F)F)on3)sc2C)cc1Cl` reads 1190 s; that for `CC(C)CN1C(=O)c2cccn2CC1C(=O)NCCCN1CCOCC1` (stereo not drawn), 577 s; that for `Cc1ccc(CN2C(=O)NC3(CCN(C(=O)c4ccsc4)CC3)C2=O)cc1`, 778 s.
`COc1ccc(NC(=O)Cn2cccc(-c3nc(-c4ccc(OC)c(OC)c4)no3)c2=O)cc1OC`: the RP-LC retention time was determined as 722 s.
`NC(=O)CSc1nnnn1-c1ccccc1` came in with an RP-LC retention time of 590 s.
Turning to `O=S(=O)(c1cccn2c(SCc3ccccc3F)nnc12)N1CCCCC1`, the RP-LC retention time came out at 869 s.
As for `O=C(N[C@H]1C[C@@H]2C[C@H]1N(C(=O)COc1cccc(Cl)c1)C2)c1cccnc1`, the figure is 656 s.
The result for `COc1ccc(-c2cc3n(n2)CCCN(S(=O)(=O)CCc2ccccc2)C3)cc1` reads 983 s.
For `COc1cc(C(CC(=O)N2CCCC2)N2Cc3ccccc3C2=O)cc(OC)c1OC` (stereo not drawn), the RP-LC retention time is 661 s.
Molecule `COc1cc(NC(=O)N(C)Cc2nc3cc(C(=O)N(C)C)ccc3n2C)cc(OC)c1` came in with an RP-LC retention time of 610 s.
